The values that follow come from the Kinase Knowledgebase extract (Sharma et al. 2016).

The target in the assay is PIK3CA (human) (UniProt P42336). Description: Inhibition of PIK3CA Kinase Activity.
Sequence of PIK3CA (human) (P42336 whole entry, looked up): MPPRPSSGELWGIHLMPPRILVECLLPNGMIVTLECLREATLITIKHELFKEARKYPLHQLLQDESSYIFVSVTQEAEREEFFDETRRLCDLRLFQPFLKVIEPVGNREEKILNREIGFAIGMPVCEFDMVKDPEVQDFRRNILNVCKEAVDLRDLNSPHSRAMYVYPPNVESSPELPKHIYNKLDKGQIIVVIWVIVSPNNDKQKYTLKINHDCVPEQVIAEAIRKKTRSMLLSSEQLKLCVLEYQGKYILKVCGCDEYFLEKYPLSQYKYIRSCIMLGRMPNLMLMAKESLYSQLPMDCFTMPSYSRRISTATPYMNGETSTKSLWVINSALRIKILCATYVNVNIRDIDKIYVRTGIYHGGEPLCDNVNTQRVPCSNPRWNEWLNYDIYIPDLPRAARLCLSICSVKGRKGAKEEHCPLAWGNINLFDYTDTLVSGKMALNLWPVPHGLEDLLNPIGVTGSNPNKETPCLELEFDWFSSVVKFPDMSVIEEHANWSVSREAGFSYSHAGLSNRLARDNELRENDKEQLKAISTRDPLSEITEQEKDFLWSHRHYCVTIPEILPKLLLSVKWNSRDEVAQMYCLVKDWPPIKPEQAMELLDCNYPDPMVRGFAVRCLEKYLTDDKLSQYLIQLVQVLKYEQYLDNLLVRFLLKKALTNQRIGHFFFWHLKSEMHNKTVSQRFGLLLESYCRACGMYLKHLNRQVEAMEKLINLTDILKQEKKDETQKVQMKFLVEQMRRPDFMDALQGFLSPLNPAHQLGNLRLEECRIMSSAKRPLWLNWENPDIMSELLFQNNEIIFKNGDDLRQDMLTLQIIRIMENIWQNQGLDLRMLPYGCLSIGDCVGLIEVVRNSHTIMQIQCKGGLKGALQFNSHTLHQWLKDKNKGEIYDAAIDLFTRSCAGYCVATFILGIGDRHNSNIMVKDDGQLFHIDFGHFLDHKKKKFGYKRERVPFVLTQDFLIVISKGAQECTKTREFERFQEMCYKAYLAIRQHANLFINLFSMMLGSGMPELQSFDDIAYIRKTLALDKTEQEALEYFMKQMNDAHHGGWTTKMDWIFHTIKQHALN

A word on the IC50: it is the concentration that inhibits the measured activity by half. Low readings indicate greater potency in that assay, high ones weaker potency in that assay. The compound `Cc1nc2ccc(-c3ccc4c(c3)CN(c3ncnc(C)c3Cc3cccc(C(F)(F)F)c3)CCO4)cc2[nH]1` yielded an IC50 of 50 to 250 nM. With `Cc1nc2ccc(-c3ccc4c(c3)CN(c3ncnc5cc(S(C)(=O)=O)ccc35)CCO4)cc2[nH]1` the figure was 50 to 250 nM; with `CC1=Cc2ncnc(N3CCOc4ccc(-c5cnc(N)c(S(=O)(=O)NCC(C)(C)N)c5)cc4C3)c2CC1(C)C`, 10 to 50 nM; with `CCc1c(C)ncnc1N1CCOc2ccc(-c3ccc4nc(C)[nH]c4c3)cc2C1`, 50 to 250 nM. With `Cc1ncnc(N2CCOc3ccc(-c4ccc5nc(N)[nH]c5n4)cc3C2)c1Cc1ccc(F)cc1` the figure was 10 to 50 nM; with `CC[C@H]1CCc2c(ncnc2N2CCOc3ccc(-c4cnc5nc([C@H](C)N)[nH]c5c4)cc3C2)C1`, 50 to 250 nM. On to `CC[C@H]1CCc2c(nc(C)nc2N2CCOc3ccc(-c4cnc(N)c(S(=O)(=O)N5CCC(C)(N)C5)c4)cc3C2)C1` (some centres not stated), for which the concentration for half-maximal inhibition (IC50) is ≤ 10 nM.

In the case of `CC[C@H]1CCc2c(ncnc2N2CCOc3ccc(-c4cnc5nc(NC(=O)OC)[nH]c5c4)cc3C2)C1`, the concentration for half-maximal inhibition (IC50) is ≤ 10 nM. For the compound `CC(C)(O)CC[S+]([O-])c1cc(-c2ccc3c(c2)CN(c2ncnc4c2CC(C)(C)CC4)CCO3)cnc1N` (configuration not stated), the IC50 lay in the range of 50 to 250 nM.

Compound `Cc1nc2ccc(-c3ccc4c(c3)CN(c3ncnc5c3CCN(Cc3ccccc3)C5)CCO4)cc2[nH]1` showed a half-maximal inhibitory concentration (IC50) of 250 to 1000 nM. With `COc1ccc2c(N3CCOc4ccc(-c5ccc(NC(C)=O)cc5)cc4C3)nc(C)nc2c1` the figure was 250 to 1000 nM. With `CCN(C)S(=O)(=O)c1cc(-c2ccc3c(c2)CN(c2ncnc4c2CC(C)(C)CC4)CCO3)cnc1N` the figure was 50 to 250 nM; with `CC1(C)CCc2ncnc(N3CCOc4ccc(-c5cnc6c(c5)OCCN6)cc4C3)c2C1`, 250 to 1000 nM. `Nc1nc2ccc(-c3ccc4c(c3)CN(c3ccnc5ccccc35)CCO4)cc2[nH]1` returned a 50% inhibitory concentration (IC50) of 10 to 50 nM.

For `COC1Cc2nc(CN(C)C)nc(N3CCOc4ccc(-c5ccc6scnc6c5)cc4C3)c2CC1(C)C` (configuration not stated), the half-inhibitory concentration (IC50) lay within 250 to 1000 nM. Compound `COc1c(OCCN(C)C)ccc2c(N3CCOc4ccc(-c5ccc6nc(C)[nH]c6c5)cc4C3)ncnc12` had an IC50 of 250 to 1000 nM. Under `CC[C@H]1CCc2c(ncnc2N2CCOc3ccc(-c4cnc5nc(C)[nH]c5c4)cc3C2)C1` stands ≤ 10 nM. Under `CCc1c(C)nc(CN(C)C)nc1N1CCOc2ccc(-c3cnc4[nH]c(C)nc4c3)cc2C1` stands ≤ 10 nM.

On to `Cc1ncnc(N2CCOc3ccc(-c4ccc5nc(N)sc5n4)cc3C2)c1Cc1ccc(F)cc1`, for which the IC50 was in the range of 50 to 250 nM. Regarding `Cc1ncnc(N2CCOc3ccc(-c4ccc5sc(N)nc5c4)cc3C2)c1Cc1ccc(F)cc1`, the IC50 lay within 50 to 250 nM. With `Cc1nc2ncc(-c3ccc4c(c3)CN(c3nc(CNC5CCCC5)nc5c3CC(C)(C)CC5)CCO4)cc2[nH]1` the figure was 10 to 50 nM; with `COc1c(Br)ccc2c(N3CCOc4ccc(-c5ccc6nc(C)[nH]c6c5)cc4C3)ncnc12`, 10 to 50 nM; with `Cc1nc2ccc(-c3ccc4c(c3)CN(c3ncnc(C)c3Cc3ccc(Cl)c(N(C)C)c3)CCO4)cc2[nH]1`, 10 to 50 nM.

Consider `CCSc1nc2c(c(N3CCOc4ccc(-c5ccc6nc(C)[nH]c6c5)cc4C3)n1)CCC2`, for which the 50% inhibitory concentration (IC50) was 250 to 1000 nM. Under `COC(=O)Nc1nc2ncc(-c3ccc4c(c3)CN(c3ncnc5c3CC(C)(C)C=C5)CCO4)cc2[nH]1` stands ≤ 10 nM; under `CCNc1nc2ccc(-c3ccc4c(c3)CN(c3ccnc5c(F)cccc35)CCO4)cc2[nH]1`, ≤ 10 nM. The compound `Cc1ncnc(N2CCOc3ccc(-c4ccc5nc(N)cn5c4)cc3C2)c1Cc1ccc(F)cc1` yielded a concentration for half-maximal inhibition (IC50) of 10 to 50 nM. `CC1(C)CCc2ncnc(N3CCOc4ccc(-c5cnc(N)c(S(=O)(=O)N6CCC(O)C6)c5)cc4C3)c2C1` (configuration not stated) had an IC50 of 10 to 50 nM. With `COC(=O)Nc1nc2ccc(-c3ccc4c(c3)CN(c3ncnc5ccccc35)CCO4)cc2[nH]1` the figure was 10 to 50 nM. `CC(N)CNS(=O)(=O)c1cc(-c2ccc3c(c2)CN(c2ncnc4c2CC(C)(C)CC4)CCO3)cnc1N` (configuration not stated) returned a concentration for half-maximal inhibition (IC50) of 50 to 250 nM. On to `CC1(C)CCc2ncnc(N3CCOc4ccc(-c5cnc6nc(N)[nH]c6c5)cc4C3)c2C1`, for which the half-maximal inhibitory concentration (IC50) was ≤ 10 nM. With `COCCc1c(C)nc(CN(C)C)nc1N1CCOc2ccc(-c3cnc4sc(N)nc4c3)cc2C1` the figure was 10 to 50 nM.

Take `CC1=Cc2ncnc(N3CCOc4ccc(-c5cnc(N)c(S(=O)(=O)NC[C@H]6CCN(C)C6)c5)cc4C3)c2CC1(C)C`: the IC50 was in the range of 10 to 50 nM. With `Cc1nc2ccc(-c3ccc4c(c3)CN(c3ncnc(C)c3Cc3ccc(F)c(F)c3)CCO4)cc2[nH]1` the figure was 10 to 50 nM. The compound `CC1(C)CCc2ncnc(N3CCOc4ccc(-c5cnc(N)c(S(=O)(=O)N6CCC(O)CC6)c5)cc4C3)c2C1` came in with a concentration for half-maximal inhibition (IC50) of 50 to 250 nM. In turn, `Cc1nc2ncc(-c3ccc4c(c3)CN(c3ncnc(N5CCN(C)CC5)c3C)CCO4)cc2[nH]1` showed an IC50 of 50 to 250 nM. The compound `Cc1nc(Nc2ccccc2)c(C)c(N2CCOc3ccc(-c4ccc5nc[nH]c5c4)cc3C2)n1` showed a half-maximal inhibitory concentration (IC50) of 50 to 250 nM.

For `COc1cc2ncnc(N3CCOc4ccc(-c5ccc6nc(C)[nH]c6c5)cc4C3)c2cc1Br`, the half-inhibitory concentration (IC50) is 50 to 250 nM.

For `Cc1nc2ncc(-c3ccc4c(c3)CN(c3nc(CNCC(F)F)nc5c3CC(C)(C)CC5)CCO4)cc2[nH]1`, the half-inhibitory concentration (IC50) was in the range of 10 to 50 nM. With `COc1cc2ncnc(N3CCOc4ccc(-c5cnc6nc(N)[nH]c6c5)cc4C3)c2cc1OC` the figure was ≤ 10 nM. Take `Cc1nc2ncc(-c3ccc4c(c3)CN(c3ncnc5c3C[C@H](C)[C@@H](C)C5)CCO4)cc2[nH]1`: the IC50 fell in the range of 50 to 250 nM. In the case of `CCNc1nc2ccc(-c3ccc4c(c3)CN(c3ncnc5c3CC(C)(C)CC5)CCO4)cc2[nH]1`, the IC50 is 10 to 50 nM. Compound `CCNc1nc2ccc(-c3ccc4c(c3)CN(c3nc(NC)nc5ccccc35)CCO4)cc2[nH]1` returned an IC50 of 50 to 250 nM.

Compound `COc1ccc2c(N3CCOc4ccc(-c5ccc6c(c5)CC(=O)N6)cc4C3)nc(C)nc2c1` had an IC50 of 250 to 1000 nM. As to `CNC(=O)c1ccc(-c2ccc3c(c2)CN(c2ncnc(C)c2Cc2ccc(F)cc2)CCO3)cc1`, the 50% inhibitory concentration (IC50) lay within 10 to 50 nM. Under `CCNc1nc2ncc(-c3ccc4c(c3)CN(c3ncnc5c3CC(C)(C)CC5)CCO4)cc2[nH]1` stands ≤ 10 nM; under `CC1(C)CCc2ncnc(N3CCOc4ccc(-c5cnc(N)c(S(=O)(=O)N6CC(F)(F)C6)c5)cc4C3)c2C1`, 50 to 250 nM; under `Cc1nc2ccc(-c3ccc4c(c3)CN(c3nc(CN(C)C)nc(C)c3C)CCO4)cc2[nH]1`, 10 to 50 nM. Turning to `Cc1nc2ncc(-c3ccc4c(c3)CN(c3nc(CN[C@@H](C)C(=O)O)nc5c3CC(C)(C)CC5)CCO4)cc2[nH]1`, the half-maximal inhibitory concentration (IC50) was ≤ 10 nM. `Cc1nc2ccc(-c3ccc4c(c3)CN(c3ccnc(Nc5ccccc5)n3)CCO4)cc2[nH]1` displayed a 50% inhibitory concentration (IC50) of 250 to 1000 nM. Under `Cc1nc2ccc(-c3ccc4c(c3)CN(c3ncnc(C(C)C)c3C)CCO4)cc2[nH]1` stands 50 to 250 nM. Consider `CCNc1nc2ccc(-c3ccc4c(c3)CN(c3cc(C)nc5cc(F)ccc35)CCO4)cc2[nH]1`, for which the IC50 is ≤ 10 nM.

In the case of `CN(c1cc(-c2ccc3c(c2)CN(c2ncnc4c2CC(C)(C)CC4)CCO3)cnc1Cl)S(C)(=O)=O`, the IC50 was 250 to 1000 nM.

As for `COc1c(OCC2CC2)ccc2c(N3CCOc4ccc(-c5ccc6nc(C)[nH]c6c5)cc4C3)ncnc12`, the IC50 was 10 to 50 nM. `Cc1nc2ccc(-c3ccc4c(c3)CN(c3ncnc5c(Br)cccc35)CCO4)cc2[nH]1` showed an IC50 of 50 to 250 nM. For the compound `CCC(N)CNS(=O)(=O)c1cc(-c2ccc3c(c2)CN(c2ncnc4c2CC(C)(C)CC4)CCO3)cnc1N` (configuration not stated), the half-inhibitory concentration (IC50) was in the range of 10 to 50 nM. `COc1ccc2nc(Cl)nc(N3CCOc4ccc(-c5ccc6nc(C)[nH]c6c5)cc4C3)c2c1` gave an IC50 of 250 to 1000 nM.

On to `CC1(C)CCc2ncnc(N3CCOc4ccc(-c5cnc(N)c(S(=O)(=O)NC[C@@H]6CCNC6)c5)cc4C3)c2C1`, for which the IC50 was 10 to 50 nM. Under `Cc1ncc(-c2ccc3c(c2)CN(c2ncnc4c2CC(C)(C)CC4)CCO3)cc1NS(C)(=O)=O` stands 10 to 50 nM. With `CN(C)S(=O)(=O)c1cc(-c2ccc3c(c2)CN(c2ncnc4c2CC(C)(C)CC4)CCO3)cnc1N` the figure was 10 to 50 nM; with `CC1(C)CCc2ncnc(N3CCOc4ccc(-c5cnc(C#N)c(NS(C)(=O)=O)c5)cc4C3)c2C1`, 50 to 250 nM; with `CCc1ncnc(N2CCOc3ccc(-c4ccc5nc(C)[nH]c5c4)cc3C2)c1CC`, 50 to 250 nM. On to `CC[C@H]1CCc2c(ncnc2N2CCOc3ccc(-c4cnc(N)c(S(=O)(=O)NCC(C)(C)N)c4)cc3C2)C1`, for which the half-maximal inhibitory concentration (IC50) was in the range of 10 to 50 nM. The compound `CC1(C)CCc2ncnc(N3CCOc4ccc(-c5cnc(N)c(S(=O)(=O)N6CCCC(N)C6)c5)cc4C3)c2C1` (configuration not stated) returned an IC50 of 50 to 250 nM. With `CC1(C)CCc2ncnc(N3CCOc4ccc(-c5cnc(N)nc5)cc4C3)c2C1` the figure was 250 to 1000 nM.

With `CCNc1nc2ncc(-c3ccc4c(c3)CN(c3nc(C)nc5c3CC(C)(C)CC5)CCO4)cc2[nH]1`, the IC50 was ≤ 10 nM.

For the compound `CCc1c(C)ncnc1N1CCOc2ccc(-c3cnc4nc(C)[nH]c4c3)cc2C1`, the half-maximal inhibitory concentration (IC50) fell in the range of 50 to 250 nM. Under `Cc1ncnc(N2CCOc3ccc(-c4cnc(N)cn4)cc3C2)c1Cc1ccc(F)cc1` stands 250 to 1000 nM; under `CC1(C)CCc2ncnc(N3CCOc4ccc(-c5cnc(O)c(S(=O)(=O)N6CC[C@H](N)C6)c5)cc4C3)c2C1`, 50 to 250 nM. For the compound `Cc1nc2ccc(-c3ccc4c(c3)CN(c3ncnc(C)c3Cc3ccccc3C)CCO4)cc2[nH]1`, the IC50 was in the range of 50 to 250 nM. Under `Cc1nc2ncc(-c3ccc4c(c3)CN(c3nc(CN5CC[C@H](F)C5)nc5c3CC(C)(C)CC5)CCO4)cc2[nH]1` stands 10 to 50 nM; under `CC1(C)C=Cc2ncnc(N3CCOc4ccc(-c5cnc(N)c(S(=O)(=O)N6CC[C@@H](N)C6)c5)cc4C3)c2C1`, 10 to 50 nM; under `Cc1nc2cc(-c3ccc4c(c3)CN(c3nc(NCCN(C)C)nc(C)c3Cc3ccc(F)cc3)CCO4)ccc2[nH]1`, 10 to 50 nM. Compound `COc1cc2c(N3CCOc4ccc(-c5ccc6nc(C)[nH]c6c5)cc4C3)ncnc2cc1OCc1ccccc1` came in with a concentration for half-maximal inhibition (IC50) of 250 to 1000 nM. Consider `c1ccc2c(N3CCOc4ccc(-c5ccc6nccnc6c5)cc4C3)ccnc2c1`, for which the IC50 is 50 to 250 nM. Regarding `Cc1nc(C)c(C(C)C)c(N2CCOc3ccc(-c4cnc5nc(C)[nH]c5c4)cc3C2)n1`, the IC50 was 10 to 50 nM. Under `Cc1nc2cc(-c3ccc4c(c3)CN(c3ncnc5c3CC3(CC5)CC3)CCO4)cnc2[nH]1` stands 10 to 50 nM.
